Experimental data reported in PubChem BioAssay AID1845195 (Molecular Pharmacology Branch, DTP, NCI, 2023).

Test system: 156681-154-R-J1 tumor spheroid viability
Assay: Anticancer human tumor 156681-154-R-J1 patient-derived melanoma cell line growth inhibition
Details: spheroids with HUVEC and MSC; for IC50: curve of first compound; for viability, T/C: stronger effect = lower value
How it was run: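 Complex spheroids of malignant cells with endothelial cells and mesenchymal stem cells; agents alone or combined, from near clinical Cmax (or 10 microM if unknown) down in half-log steps, 0.25% DMSO final.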

[1] = second compound 1 µM, first compound 0.0316 µM
[2] = second compound 1 µM, first compound 0.1 µM
[3] = second compound 1 µM, first compound 0.316 µM
[4] = second compound 1 µM, first compound 1 µM
[5] = second compound 1 µM, first compound 3.16 µM
[6] = second compound 1 µM, first compound 10 µM
[7] = second compound 3.16 µM, first compound 0.0316 µM
[8] = second compound 3.16 µM, first compound 0.1 µM
[9] = second compound 3.16 µM, first compound 0.316 µM
[10] = second compound 3.16 µM, first compound 1 µM
[11] = second compound 3.16 µM, first compound 3.16 µM
[12] = second compound 3.16 µM, first compound 10 µM
[13] = second compound 10 µM, first compound 0.0316 µM
[14] = second compound 10 µM, first compound 0.1 µM
[15] = second compound 10 µM, first compound 0.316 µM
[16] = second compound 10 µM, first compound 1 µM
[17] = second compound 10 µM, first compound 3.16 µM
[18] = second compound 10 µM, first compound 10 µM
[19] = second compound 31.6 µM, first compound 0.0316 µM
[20] = second compound 31.6 µM, first compound 0.1 µM
[21] = second compound 31.6 µM, first compound 0.316 µM
[22] = second compound 31.6 µM, first compound 1 µM
[23] = second compound 31.6 µM, first compound 3.16 µM
[24] = second compound 31.6 µM, first compound 10 µM
[25] = second compound 100 µM, first compound 0.0316 µM
[26] = second compound 100 µM, first compound 0.1 µM
[27] = second compound 100 µM, first compound 0.316 µM
[28] = second compound 100 µM, first compound 1 µM
[29] = second compound 100 µM, first compound 3.16 µM
[30] = second compound 100 µM, first compound 10 µM
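Also: spheroids exposed to compounds for 7 days before readout.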
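For viability, T/C in this document: percent of vehicle control viability where 100% = DMSO-treated spheroids.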

| SMILES | IC50 (second compound 1 µM) [µM] | IC50 (second compound 3.16 µM) [µM] | IC50 (second compound 10 µM) [µM] | IC50 (second compound 31.6 µM) [µM] | IC50 (second compound 100 µM) [µM] | viability, T/C [1] [%] | viability, T/C [2] [%] | viability, T/C [3] [%] | viability, T/C [4] [%] | viability, T/C [5] [%] | viability, T/C [6] [%] | viability, T/C [7] [%] | viability, T/C [8] [%] | viability, T/C [9] [%] | viability, T/C [10] [%] | viability, T/C [11] [%] | viability, T/C [12] [%] | viability, T/C [13] [%] | viability, T/C [14] [%] | viability, T/C [15] [%] | further results |
| --- | --- | --- | --- | --- | --- | --- | --- | --- | --- | --- | --- | --- | --- | --- | --- | --- | --- | --- | --- | --- | --- |
| CC1COCCN1c1cc(-c2ccnn2C)c2ccnc(-c3ccn[nH]3)c2n1 (stereo not given) + Cn1nnc2c(C(N)=O)ncn2c1=O | 0.0907 | 0.0898 | 0.0443 | < 0.0316 | < 0.0316 | 66.7 | 48.5 | 32.1 | 24.1 | 22.5 | 20.2 | 73.5 | 47.7 | 26.1 | 21.3 | 20.2 | 18 | 54.4 | 39.3 | 23.2 | viability, T/C [16]: 19.2%; viability, T/C [17]: 21.9%; viability, T/C [18]: 15.6%; viability, T/C [19]: 38%; viability, T/C [20]: 31.4%; viability, T/C [21]: 18.6%; viability, T/C [22]: 20.2%; viability, T/C [23]: 21.8%; viability, T/C [24]: 16.2%; viability, T/C [25]: 23.6%; viability, T/C [26]: 17.1%; viability, T/C [27]: 12.6%; viability, T/C [28]: 15.3%; viability, T/C [29]: 16%; viability, T/C [30]: 17% |
| COc1cc(C)[nH]c(=O)c1CN1CCc2c(Cl)cc(C(OC)C3COC3)c(Cl)c2C1=O (stereo not given) + Cn1nnc2c(C(N)=O)ncn2c1=O | > 10 | > 10 | > 10 | > 10 | > 10 | 115 | 103 | 116 | 115 | 81.2 | 88.5 | 107 | 144 | 90.7 | 74.9 | 127 | 130 | 84.5 | 81 | 77.7 | viability, T/C [16]: 75.2%; viability, T/C [17]: 98.7%; viability, T/C [18]: 67%; viability, T/C [19]: 70.2%; viability, T/C [20]: 56.7%; viability, T/C [21]: 60.4%; viability, T/C [22]: 58.4%; viability, T/C [23]: 54%; viability, T/C [24]: 65.7%; viability, T/C [25]: 45%; viability, T/C [26]: 66%; viability, T/C [27]: 51.7%; viability, T/C [28]: 62.9%; viability, T/C [29]: 68.7%; viability, T/C [30]: 61.4% |
| Cc1cc(C)c(CNC(=O)c2cc(-c3ccc(CN4CCOCC4)cc3)cc3c2cnn3C2CCCC2)c(=O)[nH]1 + Cn1nnc2c(C(N)=O)ncn2c1=O | > 10 | > 10 | > 10 | > 10 | > 10 | 72.6 | 107 | 90.2 | 92.4 | 79.6 | 82.4 | 90.6 | 72.7 | 83.7 | 87.2 | 68.8 | 84.4 | 105 | 73.3 | 72.4 | viability, T/C [16]: 67.1%; viability, T/C [17]: 69.2%; viability, T/C [18]: 77.5%; viability, T/C [19]: 74.2%; viability, T/C [20]: 65.7%; viability, T/C [21]: 50.5%; viability, T/C [22]: 63%; viability, T/C [23]: 51.9%; viability, T/C [24]: 58.4%; viability, T/C [25]: 51.2%; viability, T/C [26]: 61.9%; viability, T/C [27]: 67.2%; viability, T/C [28]: 52.3%; viability, T/C [29]: 56%; viability, T/C [30]: 55.6% |
| [2H]c1nc(C)nc([2H])c1-c1cc(NC[C@@H](C)c2cccc3c(C(=O)NC)ccnc23)ncn1 + Cn1nnc2c(C(N)=O)ncn2c1=O | > 10 | > 10 | > 10 | > 10 | 2.47 | 117 | 107 | 104 | 83.8 | 92.8 | 82.4 | 71.8 | 101 | 114 | 112 | 120 | 87.4 | 80 | 69.7 | 59.7 | viability, T/C [16]: 63.8%; viability, T/C [17]: 73.3%; viability, T/C [18]: 64.9%; viability, T/C [19]: 54.9%; viability, T/C [20]: 58.6%; viability, T/C [21]: 48.7%; viability, T/C [22]: 47.9%; viability, T/C [23]: 52%; viability, T/C [24]: 54%; viability, T/C [25]: 55.3%; viability, T/C [26]: 47.8%; viability, T/C [27]: 54.4%; viability, T/C [28]: 52.4%; viability, T/C [29]: 48.3%; viability, T/C [30]: 48.9% |
